Publication PMC7490411 (Signal Transduction and Targeted Therapy, 2020)

What was measured:
[1] = system: JAK1(JH1domain-catalytic); experiment: KINOMEscan; format: binding; settings: 1000 nM
[2] = system: TRKA; experiment: KINOMEscan; format: binding; settings: 1000 nM
[3] = system: DRAK1; experiment: KINOMEscan; format: binding; settings: 1000 nM
[4] = system: KIT(L576P); experiment: KINOMEscan; format: binding; settings: 1000 nM
[5] = system: KIT(A829P); experiment: KINOMEscan; format: binding; settings: 1000 nM
[6] = biological target: T1, HER4 (Homo sapiens, UniProt Q15303); experiment: ADP-Glo biochemical kinase assay
T1 construct: purchased Invitrogen (Carlsbad, CA, USA)
T1 sequence (Q15303 26-1308): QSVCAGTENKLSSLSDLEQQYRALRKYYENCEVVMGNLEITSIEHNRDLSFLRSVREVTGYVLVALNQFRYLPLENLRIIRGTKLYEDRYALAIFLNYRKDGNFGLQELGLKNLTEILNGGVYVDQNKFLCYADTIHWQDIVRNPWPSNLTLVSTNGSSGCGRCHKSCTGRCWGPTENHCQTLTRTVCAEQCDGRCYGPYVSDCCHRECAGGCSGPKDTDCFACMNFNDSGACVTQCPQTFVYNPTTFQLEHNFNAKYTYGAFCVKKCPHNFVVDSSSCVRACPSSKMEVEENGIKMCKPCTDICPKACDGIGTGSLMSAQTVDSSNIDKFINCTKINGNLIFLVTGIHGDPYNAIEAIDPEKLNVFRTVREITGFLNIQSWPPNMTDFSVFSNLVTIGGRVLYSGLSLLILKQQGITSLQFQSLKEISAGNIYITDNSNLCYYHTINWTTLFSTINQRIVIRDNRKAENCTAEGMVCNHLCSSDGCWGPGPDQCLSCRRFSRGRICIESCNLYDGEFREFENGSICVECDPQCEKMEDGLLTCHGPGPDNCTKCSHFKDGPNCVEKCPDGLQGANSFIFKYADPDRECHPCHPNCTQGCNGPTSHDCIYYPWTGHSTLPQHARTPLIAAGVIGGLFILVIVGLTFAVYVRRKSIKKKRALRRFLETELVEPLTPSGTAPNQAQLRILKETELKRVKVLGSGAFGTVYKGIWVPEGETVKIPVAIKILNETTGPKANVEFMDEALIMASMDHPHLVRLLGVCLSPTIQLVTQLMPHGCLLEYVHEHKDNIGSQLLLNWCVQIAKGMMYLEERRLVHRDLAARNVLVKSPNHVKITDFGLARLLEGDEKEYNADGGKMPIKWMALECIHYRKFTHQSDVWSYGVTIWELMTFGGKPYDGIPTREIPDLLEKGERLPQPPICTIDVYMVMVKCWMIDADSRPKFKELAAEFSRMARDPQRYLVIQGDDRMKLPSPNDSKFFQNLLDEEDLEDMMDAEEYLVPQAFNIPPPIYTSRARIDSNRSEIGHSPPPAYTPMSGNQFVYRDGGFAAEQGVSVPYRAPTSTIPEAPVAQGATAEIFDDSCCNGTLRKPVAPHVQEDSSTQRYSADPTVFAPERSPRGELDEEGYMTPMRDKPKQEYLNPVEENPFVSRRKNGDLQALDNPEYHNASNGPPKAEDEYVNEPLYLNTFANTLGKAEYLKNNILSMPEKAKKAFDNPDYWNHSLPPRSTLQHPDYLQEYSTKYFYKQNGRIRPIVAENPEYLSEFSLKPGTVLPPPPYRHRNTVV
From the text: (§1) The biochemical tests of BMX, BLK, JAK3, TXK, HER2, HER4, ITK, EGFR, and BTK were provided by Invitrogen (Carlsbad, CA, USA).

[7] = biological target: T2, ITK (Homo sapiens, UniProt Q08881); experiment: ADP-Glo biochemical kinase assay
T2 construct: purchased Invitrogen (Carlsbad, CA, USA)
T2 sequence (Q08881 1-620): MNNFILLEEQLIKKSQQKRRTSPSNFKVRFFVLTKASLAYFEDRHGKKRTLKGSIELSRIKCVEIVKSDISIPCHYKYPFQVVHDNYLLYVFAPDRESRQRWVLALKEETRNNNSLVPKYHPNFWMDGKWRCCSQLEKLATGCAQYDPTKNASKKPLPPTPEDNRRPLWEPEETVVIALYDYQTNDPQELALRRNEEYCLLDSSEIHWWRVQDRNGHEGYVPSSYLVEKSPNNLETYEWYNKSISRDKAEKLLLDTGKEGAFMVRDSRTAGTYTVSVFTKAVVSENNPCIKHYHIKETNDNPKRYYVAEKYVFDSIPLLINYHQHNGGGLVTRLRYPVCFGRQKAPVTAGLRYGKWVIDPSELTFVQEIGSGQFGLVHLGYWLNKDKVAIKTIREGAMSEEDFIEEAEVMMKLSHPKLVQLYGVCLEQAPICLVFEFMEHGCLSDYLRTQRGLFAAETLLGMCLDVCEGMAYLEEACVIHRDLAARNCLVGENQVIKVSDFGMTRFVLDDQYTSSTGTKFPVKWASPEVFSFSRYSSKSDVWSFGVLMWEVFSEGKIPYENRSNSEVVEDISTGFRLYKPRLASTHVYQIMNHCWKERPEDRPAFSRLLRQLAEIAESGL
From the text: as §1

[8] = biological target: T3, BLK (Homo sapiens, UniProt P51451); experiment: ADP-Glo biochemical kinase assay
T3 construct: purchased Invitrogen (Carlsbad, CA, USA)
T3 sequence (P51451 whole entry): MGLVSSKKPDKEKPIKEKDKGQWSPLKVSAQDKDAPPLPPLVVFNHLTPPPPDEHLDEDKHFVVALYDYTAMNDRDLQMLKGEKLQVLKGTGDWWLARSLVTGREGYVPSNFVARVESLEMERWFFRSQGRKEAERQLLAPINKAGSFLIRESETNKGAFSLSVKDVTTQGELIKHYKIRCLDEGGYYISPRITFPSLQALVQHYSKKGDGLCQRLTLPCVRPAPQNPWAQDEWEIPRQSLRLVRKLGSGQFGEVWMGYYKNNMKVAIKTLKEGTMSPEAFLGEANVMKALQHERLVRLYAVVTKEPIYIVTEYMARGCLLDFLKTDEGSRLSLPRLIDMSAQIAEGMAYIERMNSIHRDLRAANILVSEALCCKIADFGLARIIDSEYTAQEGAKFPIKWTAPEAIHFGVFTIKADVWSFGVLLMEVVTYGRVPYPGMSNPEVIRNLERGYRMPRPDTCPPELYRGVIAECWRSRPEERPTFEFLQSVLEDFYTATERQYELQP
From the text: as §1

[9] = biological target: T4, EGFR (Homo sapiens, UniProt P00533); experiment: ADP-Glo biochemical kinase assay
T4 construct: purchased Invitrogen (Carlsbad, CA, USA)
T4 sequence (P00533 25-1210): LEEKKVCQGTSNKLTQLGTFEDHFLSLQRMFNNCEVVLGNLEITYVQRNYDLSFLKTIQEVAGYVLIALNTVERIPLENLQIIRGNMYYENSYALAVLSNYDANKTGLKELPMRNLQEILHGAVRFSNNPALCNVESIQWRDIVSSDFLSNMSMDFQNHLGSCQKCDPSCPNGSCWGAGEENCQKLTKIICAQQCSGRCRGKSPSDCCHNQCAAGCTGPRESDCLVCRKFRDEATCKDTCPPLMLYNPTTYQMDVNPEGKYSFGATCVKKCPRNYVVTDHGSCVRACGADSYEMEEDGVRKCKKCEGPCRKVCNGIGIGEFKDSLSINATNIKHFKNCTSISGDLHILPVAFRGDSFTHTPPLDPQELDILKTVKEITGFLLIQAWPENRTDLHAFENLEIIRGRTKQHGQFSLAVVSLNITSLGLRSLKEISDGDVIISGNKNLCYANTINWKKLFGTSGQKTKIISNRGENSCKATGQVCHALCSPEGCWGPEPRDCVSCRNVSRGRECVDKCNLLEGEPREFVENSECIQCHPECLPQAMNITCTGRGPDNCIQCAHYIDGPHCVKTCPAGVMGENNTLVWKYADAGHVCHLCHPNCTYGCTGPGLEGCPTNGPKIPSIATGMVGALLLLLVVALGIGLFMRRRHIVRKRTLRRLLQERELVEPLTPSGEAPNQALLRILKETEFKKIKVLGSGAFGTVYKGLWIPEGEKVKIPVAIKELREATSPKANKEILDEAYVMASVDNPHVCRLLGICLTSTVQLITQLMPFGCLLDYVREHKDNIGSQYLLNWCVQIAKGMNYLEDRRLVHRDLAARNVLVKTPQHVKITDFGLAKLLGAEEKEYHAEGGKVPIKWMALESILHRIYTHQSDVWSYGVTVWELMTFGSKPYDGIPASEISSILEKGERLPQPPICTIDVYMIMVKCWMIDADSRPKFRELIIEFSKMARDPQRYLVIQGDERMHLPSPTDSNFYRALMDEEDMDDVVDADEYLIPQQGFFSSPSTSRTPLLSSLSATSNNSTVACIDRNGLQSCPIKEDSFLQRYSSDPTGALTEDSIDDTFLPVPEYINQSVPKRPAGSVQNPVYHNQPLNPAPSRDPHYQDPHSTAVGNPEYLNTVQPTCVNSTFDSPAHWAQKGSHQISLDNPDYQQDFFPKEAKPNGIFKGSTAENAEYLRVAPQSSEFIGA
From the text: as §1

[10] = biological target: T5, TXK (Homo sapiens, UniProt P42681); experiment: ADP-Glo biochemical kinase assay; settings: read-out: IC50 against TXK
T5 construct: purchased Invitrogen (Carlsbad, CA, USA)
T5 sequence (P42681 whole entry): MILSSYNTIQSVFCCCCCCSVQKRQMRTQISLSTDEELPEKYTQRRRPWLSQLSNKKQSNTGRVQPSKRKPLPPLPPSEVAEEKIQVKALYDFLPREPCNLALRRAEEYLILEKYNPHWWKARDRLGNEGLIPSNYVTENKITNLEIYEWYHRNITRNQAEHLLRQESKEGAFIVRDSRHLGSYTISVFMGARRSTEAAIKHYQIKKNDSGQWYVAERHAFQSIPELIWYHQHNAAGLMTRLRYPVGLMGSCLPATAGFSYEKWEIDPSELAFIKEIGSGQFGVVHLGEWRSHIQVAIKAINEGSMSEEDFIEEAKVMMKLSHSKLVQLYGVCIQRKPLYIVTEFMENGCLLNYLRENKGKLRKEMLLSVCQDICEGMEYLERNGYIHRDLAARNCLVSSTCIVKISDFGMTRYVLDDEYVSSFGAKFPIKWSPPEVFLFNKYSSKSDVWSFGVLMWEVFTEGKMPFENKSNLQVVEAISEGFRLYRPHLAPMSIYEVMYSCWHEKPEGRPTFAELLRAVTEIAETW
From the text: as §1

[11] = biological target: T6, HER2 (Homo sapiens, UniProt P04626); experiment: ADP-Glo biochemical kinase assay
T6 construct: purchased Invitrogen (Carlsbad, CA, USA)
T6 sequence (P04626 23-1255): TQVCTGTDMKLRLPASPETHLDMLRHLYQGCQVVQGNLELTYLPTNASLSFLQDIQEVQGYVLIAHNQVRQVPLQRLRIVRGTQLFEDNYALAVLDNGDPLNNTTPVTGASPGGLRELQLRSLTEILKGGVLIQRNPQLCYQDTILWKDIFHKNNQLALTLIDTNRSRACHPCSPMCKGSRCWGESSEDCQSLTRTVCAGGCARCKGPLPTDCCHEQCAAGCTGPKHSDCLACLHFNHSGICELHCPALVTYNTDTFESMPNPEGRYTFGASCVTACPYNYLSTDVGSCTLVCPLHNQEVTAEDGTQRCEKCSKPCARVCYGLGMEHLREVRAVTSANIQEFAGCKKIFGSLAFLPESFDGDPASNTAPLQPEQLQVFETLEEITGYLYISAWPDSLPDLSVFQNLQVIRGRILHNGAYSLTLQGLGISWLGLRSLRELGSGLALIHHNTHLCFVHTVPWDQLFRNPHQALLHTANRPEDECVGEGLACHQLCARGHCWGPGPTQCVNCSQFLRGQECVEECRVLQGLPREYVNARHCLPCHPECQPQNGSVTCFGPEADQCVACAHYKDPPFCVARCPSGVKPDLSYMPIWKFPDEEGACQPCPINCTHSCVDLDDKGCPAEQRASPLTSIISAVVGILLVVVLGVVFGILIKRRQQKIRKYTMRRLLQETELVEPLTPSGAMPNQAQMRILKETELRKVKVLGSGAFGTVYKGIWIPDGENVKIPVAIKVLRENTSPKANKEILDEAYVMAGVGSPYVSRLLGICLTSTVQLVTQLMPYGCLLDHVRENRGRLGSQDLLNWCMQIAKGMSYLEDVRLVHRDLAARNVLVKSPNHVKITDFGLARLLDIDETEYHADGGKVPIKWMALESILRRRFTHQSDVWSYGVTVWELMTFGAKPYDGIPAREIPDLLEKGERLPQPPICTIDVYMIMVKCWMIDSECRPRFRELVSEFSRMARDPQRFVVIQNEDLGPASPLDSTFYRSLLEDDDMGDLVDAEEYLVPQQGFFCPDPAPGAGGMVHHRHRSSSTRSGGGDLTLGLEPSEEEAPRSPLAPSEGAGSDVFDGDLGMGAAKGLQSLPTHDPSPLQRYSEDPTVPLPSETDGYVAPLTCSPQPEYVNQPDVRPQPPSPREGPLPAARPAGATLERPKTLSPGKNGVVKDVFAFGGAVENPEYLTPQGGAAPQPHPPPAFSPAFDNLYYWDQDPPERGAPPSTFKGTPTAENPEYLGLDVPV
From the text: as §1

[12] = biological target: T7, BMX (Homo sapiens, UniProt P51813); experiment: ADP-Glo biochemical kinase assay
T7 construct: purchased Invitrogen (Carlsbad, CA, USA)
T7 sequence (P51813 1-675): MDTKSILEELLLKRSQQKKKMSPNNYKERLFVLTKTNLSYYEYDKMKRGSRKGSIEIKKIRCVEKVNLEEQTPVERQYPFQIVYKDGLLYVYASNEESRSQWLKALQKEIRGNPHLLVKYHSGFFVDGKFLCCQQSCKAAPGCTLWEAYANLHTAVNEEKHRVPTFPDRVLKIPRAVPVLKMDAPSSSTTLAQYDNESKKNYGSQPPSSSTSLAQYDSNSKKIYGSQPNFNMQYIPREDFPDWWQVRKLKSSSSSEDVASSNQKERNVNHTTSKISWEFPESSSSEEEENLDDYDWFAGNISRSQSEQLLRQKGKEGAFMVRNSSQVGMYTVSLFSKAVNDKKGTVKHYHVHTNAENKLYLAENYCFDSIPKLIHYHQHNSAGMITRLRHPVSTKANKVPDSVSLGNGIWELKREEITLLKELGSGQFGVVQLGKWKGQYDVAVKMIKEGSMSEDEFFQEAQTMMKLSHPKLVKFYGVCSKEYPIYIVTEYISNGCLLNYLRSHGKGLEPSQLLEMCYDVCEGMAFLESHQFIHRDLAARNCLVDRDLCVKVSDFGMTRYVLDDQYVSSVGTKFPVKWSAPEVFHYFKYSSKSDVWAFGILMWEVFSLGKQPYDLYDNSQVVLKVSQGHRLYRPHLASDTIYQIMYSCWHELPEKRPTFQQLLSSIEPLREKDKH
From the text: as §1

[13] = biological target: T8, JAK3 (Homo sapiens, UniProt P52333); experiment: ADP-Glo biochemical kinase assay; settings: read-out: IC50 against JAK3
T8 construct: purchased Invitrogen (Carlsbad, CA, USA)
From the text: as §1

[14] = system: STK39; experiment: KINOMEscan; format: binding; settings: 1000 nM
[15] = system: CSNK1G1; experiment: KINOMEscan; format: binding; settings: 1000 nM
[16] = system: ERK8; experiment: KINOMEscan; format: binding; settings: 1000 nM
[17] = system: CLK1; experiment: KINOMEscan; format: binding; settings: 1000 nM
[18] = system: AMPK-alpha1; experiment: KINOMEscan; format: binding; settings: 1000 nM
[19] = system: SRC; experiment: KINOMEscan; format: binding; settings: 1000 nM
[20] = system: ROCK2; experiment: KINOMEscan; format: binding; settings: 1000 nM
[21] = system: JAK1(JH2domain-pseudokinase); experiment: KINOMEscan; format: binding; settings: 1000 nM
[22] = system: PIK4CB; experiment: KINOMEscan; format: binding; settings: 1000 nM
[23] = system: BTK Y223 autophosphorylation; experiment: signaling pathway western blot in TMD8, REC-1 and DOHH2 cells; format: cell-based; settings: 4 h
From the text: The cells were then washed in PBS and lysed in cell lysis buffer. BTK, Phospho-BTK(Tyr223), PLCγ2, Phospho-PLCγ2 (Tyr1217), Phospho-AKT […], Phospho-NF-κB p65(Ser536), ERK, Phospho-p44/42MAPK (ERK1/2) (Thr202/Tyr204), AKT and GAPDH antibody (Cell signaling Technology) were used for immunoblotting.

[24] = system: FGFR3(G697C); experiment: KINOMEscan; format: binding; settings: 1000 nM
[25] = system: LRRK2; experiment: KINOMEscan; format: binding; settings: 1000 nM

C=CC(=O)Nc1cc(Nc2cc(-c3cccc(NC(=O)c4cc5c(s4)CCCC5)c3C)cn(C)c2=O)ccc1N1CCN(CC)CC1 [CHMFL-BTK-85]
Percent Control [1]: 96% | Percent Control [2]: 86% | Percent Control [3]: 97% | Percent Control [4]: 79% | Percent Control [5]: 92% | IC50 ([6]; read-out: IC50 against HER4): > 10 µM | selectivity over HER4 ([6]; vs BTK): more than 1000 fold | IC50 ([7]; read-out: IC50 against ITK): > 10 µM | selectivity over ITK ([7]; vs BTK): more than 1000 fold | IC50 ([8]; read-out: IC50 against BLK): > 10 µM | selectivity over BLK ([8]; vs BTK): more than 1000 fold | IC50 ([9]; read-out: IC50 against EGFR): > 10 µM | selectivity over EGFR ([9]; vs BTK): more than 1000 fold | IC50 [10]: 3.313 ± 0.017 µM | IC50 ([11]; read-out: IC50 against HER2): > 10 µM | selectivity over HER2 ([11]; vs BTK): more than 1000 fold | IC50 ([12]; read-out: IC50 against BMX): 120 ± 3.7 nM | selectivity over BMX ([12]; vs BTK): 10 fold | IC50 [13]: 2720 ± 45 nM | Percent Control [14]: 100% | Percent Control [15]: 95% | Percent Control [16]: 95% | Percent Control [17]: 88% | Percent Control [18]: 100% | Percent Control [19]: 77% | Percent Control [20]: 100% | Percent Control [21]: 96% | Percent Control [22]: 100% | concentration blocking BTK Y223 autophosphorylation [23]: < 10 nM | Percent Control [24]: 87% | Percent Control [25]: 100%
